Measured values as given in PubChem BioAssay (NCI).
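Growth conditions: 96-well plates. Treatment: test compound, 48 hours, 5 concentrations. Analysis: linear interpolation between bracketing concentrations; unreached endpoints set to highest concentration. Abbreviation: GI50, concentration required for 50% inhibition of growth. TGI denotes the concentration required for complete inhibition of growth.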

Tests used:
Assay in all cases: growth of human tumour cells (NCI), 48 h
SNB-75 CNS = tested on: SNB-75 CNS
UACC-257 melanoma = tested on: UACC-257 melanoma
UO-31 renal = tested on: UO-31 renal
COLO 205 colon = tested on: COLO 205 colon
A498 renal = tested on: A498 renal
HCT-15 colon = tested on: HCT-15 colon
MALME-3M melanoma = tested on: MALME-3M melanoma
HT29 colon = tested on: HT29 colon
A549 NSCLC = tested on: A549 NSCLC
OVCAR-3 ovarian = tested on: OVCAR-3 ovarian

SMILES	GI50 (SNB-75 CNS) [µM]	TGI (SNB-75 CNS) [µM]	GI50 (UACC-257 melanoma) [nM]	TGI (UACC-257 melanoma) [µM]	GI50 (UO-31 renal) [nM]	TGI (UO-31 renal) [µM]	GI50 (COLO 205 colon) [µM]	TGI (COLO 205 colon) [µM]	GI50 (A498 renal) [µM]	TGI (A498 renal) [µM]	GI50 (HCT-15 colon) [µM]	TGI (HCT-15 colon) [µM]	GI50 (MALME-3M melanoma) [µM]	TGI (MALME-3M melanoma) [µM]	GI50 (HT29 colon) [µM]	TGI (HT29 colon) [µM]	GI50 (A549 NSCLC) [µM]	TGI (A549 NSCLC) [µM]	GI50 (OVCAR-3 ovarian) [nM]	TGI (OVCAR-3 ovarian) [µM]
O=Cc1c(-c2cc(O)ccc2O)nc2sccn12	36.9	> 100	29900	95.8	1050	2.38	32.3	> 100	29.5	78.9	12.5	39.3	10.9	25	35.1	> 100	25.7	> 100	1600	6.47
CC(C)N(C(=O)C12C3C4C5(C#N)C3C1(I)C5C42I)C(C)C (stereo not given)	–	> 100	–	> 100	–	> 100	–	> 58.9	–	> 100	–	> 57.7	–	> 100	–	> 100	–	> 100	–	> 100
O=C(O)c1ccc2c(c1)Cc1cc([N+](=O)[O-])ccc1-2	–	> 100	–	> 100	–	> 100	–	> 100	–	> 100	–	> 100	–	> 100	–	> 100	–	> 100	–	> 100
O=C1C=C[C@@]23CC1C(O)C[C@H]2C=Cc1ccccc13 (stereo not given in full)	–	> 100	–	> 100	–	> 100	–	> 100	–	> 100	–	> 100	–	> 100	–	> 100	–	> 100	–	> 100
C=C1C(=O)O[C@H]2[C@H]1CC/C(COC(=O)NCc1cc3ccccc3[nH]1)=C\CC[C@@]1(C)O[C@@H]21	3.91	19.2	2110	4.61	1200	2.43	1.8	3.59	10.9	23.4	1.54	3.32	1.81	3.58	2.21	4.7	10.3	27.2	1690	3.52
CC1=C(/C=C/C(C)=C\C=C\C(C)=C\C(=O)Nc2ccc3c(c2)OCO3)C(C)(C)CCC1	7.41	> 100	29400	> 100	> 100000	> 100	37.8	> 100	> 100	> 100	36.4	> 100	7.93	> 100	11.9	> 100	84.8	> 100	> 100000	> 100
CC(=O)OC[C@H]1O[C@@H](n2ccc(=O)[nH]c2=O)[C@H](OC(C)=O)[C@@H]1OC(C)=O	> 100	> 100	> 100000	> 100	> 100000	> 100	> 100	> 100	> 100	> 100	> 100	> 100	> 100	> 100	> 100	> 100	> 100	> 100	> 100000	> 100
CC1=C([Se]CC(OC(=O)CC[Se]c2ccccc2)C(=O)NCCCCCC(=O)OCc2ccccc2)C(=O)c2ccccc2C1=O (stereo not given)	1.71	6.23	2780	7.9	2070	7.41	2.15	3.93	2.25	8.48	3.85	21.6	2.31	5.92	3.65	12.1	2.56	6.72	1830	4.71
O=c1n(C2CCCCC2)c(=C(Cl)Cl)c(=C(Cl)Cl)n1C1CCCCC1	–	> 100	–	> 100	–	> 100	–	> 100	–	> 100	–	> 100	–	> 100	–	> 100	–	> 100	–	> 100
CCN(Cc1cccc(OC)c1)c1ccc(CO)c(Cl)c1	16.3	62	121	0.295	8400	45.1	1.02	4.35	0.0598	0.191	14.8	66.6	17.5	40.9	2.13	17.3	2.06	27.7	477	4.34
CC(O)/C=C/C(CCC(C)CO)C(C)C (stereo not given)	–	> 100	–	> 100	–	> 100	–	> 100	–	> 100	–	> 100	–	> 100	–	> 100	–	> 100	–	> 100
COc1ccc(/C=C/C(=O)c2cc3c(N)c(C(=O)Nc4ccccc4Cl)sc3nc2C)cc1	1.12	4.32	1190	13.5	1170	3.94	17.2	> 50	0.866	4.51	2.96	> 50	0.736	9.21	1.98	> 50	2.14	> 50	2110	16.3
